According to US10993957B2 (NuCana plc, priority 2011, dated 2021):
Like-named read-outs stand apart in the source and are kept apart here.

Columns and labels:
[1] = system: Cem/hEnt-1; assay: Cytostatic assay, CEM cells containing the hEnt1 transporter; type: cell-based
Description: (§1) Data are mean (±SD) of at least two to four independent experiments. Table 8 identifies the phosphoramidate motif of compounds embodying the present invention, as discussed above with respect to Table 6, but with “Naph” standing for 1-naphthyl.

[2] = molecular target: Thymidine Phosphorylase purified from Escherichia coli (Escherichia coli, UniProt P07650); assay: Phosphorylase assay by in situ 19F NMR; settings: potassium phosphate buffer 300 nM, pH 7.4; after 5 min, 14 h and 72 h
Sequence of Thymidine Phosphorylase purified from Escherichia coli (P07650 whole entry): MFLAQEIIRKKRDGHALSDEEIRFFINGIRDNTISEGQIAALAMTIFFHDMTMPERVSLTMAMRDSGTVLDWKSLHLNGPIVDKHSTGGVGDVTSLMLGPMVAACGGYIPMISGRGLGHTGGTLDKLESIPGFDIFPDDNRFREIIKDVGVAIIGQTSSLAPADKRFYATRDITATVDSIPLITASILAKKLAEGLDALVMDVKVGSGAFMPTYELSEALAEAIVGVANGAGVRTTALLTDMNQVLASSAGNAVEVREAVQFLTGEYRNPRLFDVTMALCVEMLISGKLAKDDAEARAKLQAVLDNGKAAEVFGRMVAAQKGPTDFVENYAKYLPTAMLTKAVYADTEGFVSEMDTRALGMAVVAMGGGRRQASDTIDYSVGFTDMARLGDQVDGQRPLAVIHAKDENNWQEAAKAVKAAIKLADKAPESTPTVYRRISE
Method: Two potassium phosphate buffers at pH=7.4, 200 nM solution and 300 nM solution respectively, were used as phosphate donor. Units of enzyme were defined as the amount of enzyme required to hydrolyse about 0.25 mg of inosine per min used as standard. Assays were conducted for 30 minutes.

[3] = system: L1210/0; assay: Cytostatic assay, L1210/0 cells; type: cell-based, murine; settings: for IC50: read-out: IC50 L1210/0
Description: (§2) The cell lines employed were L1210/0 (a leukemia cell line), FM3A/0 (a breast cancer cell line), Cem/0 (an acute lymphoblastic leukemia cell line) and HeLa (a cervical cell line).

[4] = system: HeLa; assay: Cytostatic assay, HeLa cells; type: cell-based; settings: for IC50: Table 6, read-out: IC50 HeLa
Description: as §2

[5] = system: L1210.Hyor; assay: Cytostatic assay, Mycoplasma hyorhinis-infected L1210 cells
Procedure, shortened: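 Suspension L1210/0 murine leukaemia cells infected with M. hyorhinis, seeded at 60,000 cells/well with test compound in DMEM/10% FBS and grown 48 h at 37 °C, 5% CO2. Cell number counted by Coulter counter; activity also expressed as % retained versus uninfected cells.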

[6] = system: HeLa/TK^−; assay: Cytostatic assay, HeLa/TK^− cells; type: cell-based; settings: for IC50: Table 6, read-out: IC50 HeLa/TK^−
Description: as §2

[7] = Stability in buffer at pH 1 by 31P NMR; type: physicochemical; settings: 14 hours
Method: The stability of the prodrug CPF-373 towards hydrolysis at pH=1 was studied using in situ ^31P NMR (202 MHz). The ProTide CPF-373 (1) (2.6 mg) was dissolved in MeOD (0.1 mL) after which 0.5 mL buffer (pH=1) (prepared from equal parts of 0.2 M HCl and 0.2 M KCl) was added. Then the sample was transferred into an NMR tube, and a ^31P NMR experiment was performed at 37° C. recording the data every 12 minutes for 14 hours. Data were processed and analysed with the Bruker Topspin 2.1 program.
A chemical hydrolysis was evaluated under experimental conditions at pH 1 and pH 8 and monitored by ^31P NMR. During the assay (14 h) under acidic conditions (pH 1) only two peaks representing the two diastereoisomers were recorded.

[8] = system: L1210/TK^−; assay: Cytostatic assay, thymidine kinase-deficient L1210/TK^− cells; type: cell-based, murine; settings: for IC50: Table 6, read-out: IC50 L1210/TK^−
[9] = system: Cem/0; assay: Cytostatic assay, CEM/0 cells; type: cell-based, human; settings: for IC50: Table 6, read-out: IC50 Cem/0
Description: as §2

[10] = system: Cem/hEnt-0; assay: Cytostatic assay, CEM cells lacking the hEnt1 transporter; type: cell-based; settings: Table 8; read-out: IC50 Cem/hEnt-0
Description: as §1

[11] = system: Cem/TK^−; assay: Cytostatic assay, thymidine kinase-deficient CEM/TK^− cells; type: cell-based, human; settings: for IC50: Table 6, read-out: IC50 Cem/TK^−
[12] = Stability in human serum by in situ 31P NMR; type: in vitro ADME; settings: 37° C., after 13 h and 30 min
Method: The stability of the prodrug CPF-373 in the presence of human serum was studied using in situ ^31P NMR (202 MHz). The ProTide CPF-373 (1) (5.0 mg) was dissolved in DMSO (0.05 mL) and D2O (0.15 mL). Then the sample was transferred into an NMR tube, which was inserted in the NMR chamber at 37° C. (with enough solvent to obtain a control NMR reading of the blank). Then 0.3 ml human serum was quickly added to the sample in the NMR tube. NMR experiments were programmed to record data every 15 minutes for 12 hours and 30 minutes. Because of excess noise and poor shimming profiles (most likely due to the biological media and concentration), individual spectra were further processed. After normal Fourier transform processing, each spectrum was deconvoluted (Lorentz-Gauss deconvolution) to reveal solely the frequency and area of spectral peaks without the baseline. Data recorded were processed and analysed with the Bruker Topspin 2.1 program.
Chemical stability studies on the prodrug CPF-373 (1) have been performed by exposing the compound to human serum and to aqueous buffers (pH 1.0 and 8.0) using in situ ^31P NMR. […]
The stability of compound CPF 386 in the presence of human serum was investigated using in situ ^31P NMR. A control ^31P NMR data of compound CPF 386 in DMSO and D2O were recorded. […] The ^31P NMR data were recorded every 15 minutes over 14 h. […]

C[C@H](NP(=O)(OC[C@H]1O[C@@H](n2cc(F)c(=O)[nH]c2=O)CC1O)Oc1ccccc1)C(=O)OCc1ccccc1 (stereo partly drawn) [CPF 381, 5-Fluoro-2′-deoxyuridine-5′-O-[phenyl(benzoxy-L-alaninyl)]phosphate]
IC50 ([1]; Table 8, read-out: IC50 Cem/hEnt-1): 130 ± 50 nM | IC50 ([1]; in the presence of NBMPR, read-out: IC50 Cem/hEnt-1 + NBMPR): 720 nM | IC50 ([1]; in the presence of dipyridamole, read-out: IC50 Cem/hEnt-1 + dipyridamole): 660 nM | Phosphorolysis by thymidine phosphorylase (19F NMR) [2]: did not show any evidence of phosphorolysis | CC50 ([3]; Table 2, mycoplasma negative cells, read-out: CC50 L1210): 26 nM | IC50 ([3]; Table 6): 28 ± 7 nM | IC50 ([3]; Table 7): 26 ± 8 nM | IC50 [4]: 130 ± 10 nM | % Retention ([5]; CC50 L1210 × 100 ÷ CC50 L1210/Hyor): 18% | IC50(L1210.Hyor)/IC50(L1210/0) ([5]; Table 7): 5.8 | CC50 ([5]; read-out: CC50 L1210/Hyor, Table 2, mycoplasma positive cells): 150 nM | IC50 ([5]; read-out: IC50 L1210.Hyor, Table 7): 150 ± 6 nM | IC50 [6]: 19000 ± 2000 nM | Stability towards hydrolysis at pH 1 [7]: highly stable | IC50 [8]: 13000 ± 8000 nM | IC50 [9]: 180 ± 30 nM | IC50 [10]: 1400 ± 650 nM | IC50 [11]: 22000 ± 7000 nM

CCOC(=O)[C@H](C)NP(=O)(OC[C@H]1O[C@@H](n2cc(F)c(=O)[nH]c2=O)CC1O)Oc1cccc2ccccc12 (stereo partly drawn) [CPF 386, 5-Fluoro-2′deoxyuridine-5′-O-[1-naphthyl (ethoxy-L-alaninyl)] phosphate]
CC50 ([3]; Mus musculus, L1210/0, Table 1, read-out: CC50 L1210/0): 31 ± 5 nM | IC50 ([3]; Mus musculus, L1210/0, Table 6): 31 ± 5 nM | IC50 ([3]; Mus musculus, L1210/0, Table 7): 28 ± 2.1 nM | CC50 ([4]; Homo sapiens, HeLa, Table 1, read-out: CC50 HeLa): 220 ± 40 nM | IC50 ([4]; Homo sapiens, HeLa): 220 ± 40 nM | parent compound in reaction mixture with human serum [12]: 96% | IC50 ([5]; Mus musculus, L1210, read-out: IC50 L1210.Hyor): 95 ± 2.8 nM | IC50(L1210.Hyor)/IC50(L1210/0) ([5]; Table 7): 3.4 | CC50 ([6]; Homo sapiens, HeLa, Table 1, read-out: CC50 HeLa/TK^−): 2800 nM | IC50 ([6]; Homo sapiens, HeLa): 2800 nM | CC50 ([8]; Mus musculus, L1210, Table 1, read-out: CC50 L1210/TK^−): 360 ± 10 nM | IC50 ([8]; Mus musculus, L1210): 360 ± 10 nM | CC50 ([9]; Homo sapiens, CCRF-CEM, Table 1, read-out: CC50 Cem/0): 250 ± 40 nM | IC50 ([9]; Homo sapiens, CCRF-CEM): 250 ± 40 nM | CC50 ([11]; Homo sapiens, CEM-TK(-), Table 1, read-out: CC50 Cem/TK^−): 1600 ± 200 nM | IC50 ([11]; Homo sapiens, CEM-TK(-)): 1600 ± 200 nM
